Consider one molecule from patent publication US10253341B2, “Mutant sugar isomerase with improved activity, derived from E. coli, and production of L-gulose using the same” (priority 2014, dated 2019).

What all share (type): biochemical
Assay [1] addresses Escherichia coli O157:H7 sugar isomerase (EcSI, SEQ ID NO: 3) variant I112C T56M M92L (Escherichia coli, UniProt A0A6M7H989, I112C/M92L/T56M).
Assay [2] has as its target Escherichia coli O157:H7 sugar isomerase (EcSI, SEQ ID NO: 3) variant I112C T56M (Escherichia coli, UniProt A0A6M7H989, I112C/T56M).
In assay [3] the target is Escherichia coli O157:H7 sugar isomerase (EcSI), wild type, SEQ ID NO: 3 (Escherichia coli, UniProt A0A6M7H989).
Assay [4] has as its target Escherichia coli O157:H7 sugar isomerase (EcSI, SEQ ID NO: 3) variant T56M (Escherichia coli, UniProt A0A6M7H989, T56M).
Assay [5] addresses Escherichia coli O157:H7 sugar isomerase (EcSI, SEQ ID NO: 3) variant I112C (Escherichia coli, UniProt A0A6M7H989, I112C).
Assay [6] deals with Escherichia coli O157:H7 sugar isomerase (EcSI, SEQ ID NO: 3) variant M92L (Escherichia coli, UniProt A0A6M7H989, M92L).

Regarding `OCC1(O)OC[C@H](O)[C@@H](O)[C@@H]1O` (stereo partly drawn) [L-sorbose], the kcat in assay [1] turned out to be 245 S^−1; in assay [2] it was 144 S^−1; in assay [3], 84 S^−1; in assay [4] it was 101 S^−1; in assay [5], 88 S^−1; in assay [6] it was 105 S^−1. The kcat/Km in assay [1] turned out to be 2.28 mM^−1S^−1; in assay [2], 1.53 mM^−1S^−1; in assay [3], 0.63 mM^−1S^−1; in assay [4], 0.85 mM^−1S^−1; in assay [5] it was 0.92 mM^−1S^−1; in assay [6], 0.70 mM^−1S^−1.
